In ChEMBL document CHEMBL3612058, “Synthesis and biological evaluation of a new series of 2-amino-3-aroyl thiophene derivatives as agonist allosteric modulators of the A1 adenosine receptor. A position-dependent effect study” (Eur J Med Chem, 2015):
Active and inactive are the calls of the source. The rule behind the calls is not given here.

Key:
[1] = biological target: T1, Adenosine receptor A1 (Homo sapiens) (UniProt P30542); test: Effect on association binding rate constant of [3H]-NECA to human adenosine A1 receptor expressed in CHO cells at 1 uM after 45 mins by scintillation spectrometry analysis; assay type: cell-based
T1 sequence (whole entry): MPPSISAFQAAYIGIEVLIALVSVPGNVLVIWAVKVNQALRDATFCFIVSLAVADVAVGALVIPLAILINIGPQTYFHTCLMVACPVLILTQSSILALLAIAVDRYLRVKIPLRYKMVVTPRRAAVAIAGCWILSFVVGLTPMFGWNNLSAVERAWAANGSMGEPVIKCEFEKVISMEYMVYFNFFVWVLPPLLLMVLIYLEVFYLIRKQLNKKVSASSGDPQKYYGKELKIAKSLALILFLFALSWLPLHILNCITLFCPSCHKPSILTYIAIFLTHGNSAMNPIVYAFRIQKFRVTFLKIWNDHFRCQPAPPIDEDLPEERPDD

Mus musculus [2] = test: Antinociceptive effect in CD1 mouse assessed as inhibition of formalin-induced pain behavior in paw at 0.3 mg/kg, ip administered 15 mins before formalin challenge measured up to 45 mins relative to control; assay type: functional
[3] = Displacement of [3H]-ZM241385 from human adenosine A2 receptor expressed in CHO cells at 10 uM after 120 mins by scintillation counting; assay type: cell-based
Mus musculus [4] = test: Antinociceptive effect in CD1 mouse assessed as inhibition of formalin-induced pain behavior in paw at 3 mg/kg, ip administered 15 mins before formalin challenge measured up to 45 mins relative to control; assay type: functional
[5] = biological target: T1, Adenosine receptor A1 (Homo sapiens); test: Positive allosteric enhancement of human cloned adenosine A1 receptor expressed in CHO cells assessed as inhibition of forskolin-induced cAMP accumulation at 10 uM using [3H]-cAMP by scintillation counting relative to control; assay type: functional, cell-based
[6] = biological target: T1, Adenosine receptor A1 (Homo sapiens); test: Positive allosteric enhancement of human cloned adenosine A1 receptor expressed in CHO cells assessed as inhibition of forskolin-induced cAMP accumulation at 100 nM using [3H]-cAMP by scintillation counting relative to control in presence of 1 pM of CCPA; assay type: functional, cell-based
[7] = biological target: T1, Adenosine receptor A1 (Homo sapiens); test: Increase of [3H]-NECA affinity to human adenosine A1 receptor expressed in CHO cells at 1 uM after 45 mins by scintillation spectrometry analysis relative to control; assay type: cell-based
[8] = biological target: T2, Adenosine receptor A3 (Homo sapiens) (UniProt P0DMS8); test: Displacement of [3H]-MRE-3008-F20 from human adenosine A3 receptor expressed in CHO cells at 10 uM after 120 mins by scintillation counting; assay type: cell-based
T2 sequence (whole entry): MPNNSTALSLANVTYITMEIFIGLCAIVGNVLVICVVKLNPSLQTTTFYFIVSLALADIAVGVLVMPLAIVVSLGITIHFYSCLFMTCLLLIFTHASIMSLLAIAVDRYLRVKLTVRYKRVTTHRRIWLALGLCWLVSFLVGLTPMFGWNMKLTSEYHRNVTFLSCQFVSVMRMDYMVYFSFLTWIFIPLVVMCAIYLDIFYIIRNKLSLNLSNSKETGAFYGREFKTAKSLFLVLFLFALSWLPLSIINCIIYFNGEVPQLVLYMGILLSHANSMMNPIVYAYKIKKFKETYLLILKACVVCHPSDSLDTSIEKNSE

[9] = biological target: T1, Adenosine receptor A1 (Homo sapiens); test: Ratio of PD81723 to compound for positive allosteric enhancement of human cloned adenosine A1 receptor expressed in CHO cells assessed as inhibition of forskolin-induced cAMP accumulation at 10 uM using [3H]-cAMP by scintillation counting; assay type: functional, cell-based
[10] = biological target: T1, Adenosine receptor A1 (Homo sapiens); test: Displacement of [3H]DPCPX from human adenosine A1 receptor expressed in CHO cells at 10 uM after 120 mins by scintillation counting; assay type: cell-based
[11] = biological target: T1, Adenosine receptor A1 (Homo sapiens); test: Effect on dissociation binding rate constant of [3H]-NECA to human adenosine A1 receptor expressed in CHO cells at 1 uM after 45 mins by scintillation spectrometry analysis relative to control; assay type: cell-based
[12] = biological target: T1, Adenosine receptor A1 (Homo sapiens); test: Binding affinity to human adenosine A1 receptor expressed in CHO cells assessed as fold Bmax shift of [3H]-CCPA at 10 uM after 90 mins by [3H]-CCPA binding assay relative to control; assay type: cell-based
[13] = biological target: T1, Adenosine receptor A1 (Homo sapiens); test: Binding affinity to human adenosine A1 receptor expressed in CHO cells assessed as fold Ki shift of CCPA at 10 uM after 90 mins by [3H]-CCPA displacement assay relative to control; assay type: cell-based

Compound | Activity [1] | inhibition in vivo at 0.3 mg/kg (Mus musculus [2]) [%] | inhibition [3] [%] | inhibition in vivo at 3 mg/kg (Mus musculus [4]) [%] | inhibition [5] [%] | inhibition [6] [%] | fold change (FC) [7] | inhibition [8] [%] | Ratio [9] | inhibition [10] [%] | fold change (FC) [11] | fold change (FC) [12] | fold change (FC) [13] | Activity [7] | Activity [11]
Nc1sc(-c2ccc(Cl)cc2)c(Cc2ccc(Cl)cc2)c1C(=O)c1ccc(Cl)cc1 | inactive | 49 | < 10 | 82 | 81 | 84 | 2.3 | < 10 | 3 | < 10 | 2.5 | 11 | 11.7 | – | –
CSc1ccc(Cc2c(-c3ccccc3)sc(N)c2C(=O)c2ccc(Cl)cc2)cc1 | – | – | < 10 | – | 63 | 65 | – | < 10 | 3 | < 10 | – | 6.6 | 6.3 | – | –
COc1ccc(Cc2c(-c3ccccc3)sc(N)c2C(=O)c2ccc(Cl)cc2)cc1C | – | – | < 10 | – | 66 | 66 | – | < 10 | 3 | < 10 | – | 8.1 | 6.1 | – | –
COc1ccc(-c2sc(N)c(C(=O)c3ccc(Cl)cc3)c2Cc2ccccc2)cc1 | – | – | < 10 | – | 46 | 47 | – | < 10 | 3 | < 10 | – | 4.8 | 3.5 | – | –
Cc1sc(N)c(C(=O)c2cccc(C(F)(F)F)c2)c1C | inactive | – | < 10 | – | – | 21 | – | < 10 | – | < 10 | – | 1.3 | 1.4 | inactive | inactive
COc1ccccc1Cc1c(-c2ccccc2)sc(N)c1C(=O)c1ccc(Cl)cc1 | – | – | < 10 | – | 55 | 51 | – | < 10 | 3 | < 10 | – | 5.6 | 4.9 | – | –
COc1c(C)cc(Cc2c(-c3ccccc3)sc(N)c2C(=O)c2ccc(Cl)cc2)cc1C | – | – | < 10 | – | 59 | 61 | – | < 10 | 3 | < 10 | – | 6.6 | 4.6 | – | –
Nc1sc(-c2ccccc2)c(Cc2ccc(OC(F)(F)F)cc2)c1C(=O)c1ccc(Cl)cc1 | – | – | < 10 | – | 68 | 69 | – | < 10 | 3 | < 10 | – | 8.2 | 6.6 | – | –
COc1ccc(Cc2c(-c3ccc(F)cc3)sc(N)c2C(=O)c2ccc(Cl)cc2)cc1 | – | – | < 10 | – | 58 | 59 | – | < 10 | 3 | < 10 | – | 6.3 | 5.4 | – | –
Nc1sc(-c2ccccc2)c(Cc2ccccc2)c1C(=O)c1ccc(Cl)cc1 | – | – | < 10 | – | 51 | 50 | – | < 10 | 3 | < 10 | – | 4.9 | 4.2 | – | –
COc1ccc(Cc2c(-c3ccccc3)sc(N)c2C(=O)c2ccc(Cl)cc2)cc1 | – | – | < 10 | – | 71 | 74 | – | < 10 | 3 | < 10 | – | 9.4 | 8.9 | – | –
Nc1sc(-c2ccc(Cl)cc2)c(Cc2ccc(F)cc2)c1C(=O)c1ccc(Cl)cc1 | – | – | < 10 | – | 75 | 73 | – | < 10 | 3 | < 10 | – | 9.1 | 9.5 | – | –
COc1ccc(Cc2c(-c3ccccc3)sc(N)c2C(=O)c2ccc(Cl)cc2)c(OC)c1 | – | – | < 10 | – | 52 | 53 | – | < 10 | 3 | < 10 | – | 5.6 | 4.2 | – | –
COc1ccc(-c2sc(N)c(C(=O)c3ccc(Cl)cc3)c2Cc2ccc(SC)cc2)cc1 | – | – | < 10 | – | 62 | 62 | – | < 10 | 3 | < 10 | – | 6.5 | 6.1 | – | –
COc1cccc(Cc2c(-c3ccccc3)sc(N)c2C(=O)c2ccc(Cl)cc2)c1 | – | – | < 10 | – | 66 | 63 | – | < 10 | 3 | < 10 | – | 7.3 | 6.9 | – | –
